According to patent US7638540B2, “Benzofuran compound and medicinal composition containing the same” (The New Industry Research Organization, priority 2003, dated 2009):

What was measured:
human BLT2 = biological target: T1, human BLT2 (Homo sapiens, UniProt Q9NPC1); test: LTB4-induced increase in intracellular calcium ion concentration in CHO cells expressing human BLT2 (Fluo-3, Flexstation); assay type: cell-based; conditions: LTB4 100 nM final; for Suppressive effect on increase in intracellular calcium ion concentration compared with ZK158252 (in words): compound 10 μM final
T1 construct: expressed in transfected cells; host or cells: CHO cells
T1 sequence (Q9NPC1 1-358): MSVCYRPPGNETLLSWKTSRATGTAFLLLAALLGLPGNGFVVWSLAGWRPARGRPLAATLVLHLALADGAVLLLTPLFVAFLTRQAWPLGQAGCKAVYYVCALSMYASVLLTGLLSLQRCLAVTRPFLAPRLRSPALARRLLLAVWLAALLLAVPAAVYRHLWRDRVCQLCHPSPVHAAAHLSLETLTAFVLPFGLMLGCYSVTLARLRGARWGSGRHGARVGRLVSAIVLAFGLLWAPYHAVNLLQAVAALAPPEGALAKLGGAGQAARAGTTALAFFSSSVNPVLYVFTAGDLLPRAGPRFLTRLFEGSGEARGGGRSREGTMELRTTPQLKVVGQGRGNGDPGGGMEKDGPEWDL
Method: (§1) CHO cells habouring a gene encoding human BLT1 or human BLT2 and functionally expressing the receptor were seeded in a 96 well plate at 4×10^4 cells/well, and cultured at 37° C. for 60 min. The culture supernatant was removed and a loading buffer (100 μl) containing 4 μM Fluo-3 (manufactured by Dojindo), 0.04% pluoronic acid (manufactured by Sigma) and 1% serum was added. The mixture was culture at 37° C. for 30 min to introduce Fluo-3 into the cells. After culture, the cells were washed with a buffer, and a buffer containing various compounds (10 μM (final concentration)) was added, and then 100 nM (final concentration) of LTB4 was added. Changes in the intracellular calcium ion concentration were measured with Flexstation (manufactured by Molecular Devices Corporation) as increase in the fluorescence intensity (area under a curve in a time-course graph of fluorescence intensity in 10 min measurement). As a positive control of BLT1 and BLT2 antagonists, ZK158252 was used.

LTB4 receptor = test: TXB2 release from guinea pig eosinophils stimulated with LTB4 (LTB4 receptor antagonist activity); assay type: cell-based; conditions: 10^−3 M test compound (37.5 μl) added to 300 μl cell suspension, then 10^−7 M LTB4 (37.5 μl), 37° C. 15 min, positive control 100, negative control 0, N.D. = TXB2 concentration at measurement limit or less
Method: The LTB4 receptor antagonist activity of the test compound was examined using, as an index, thromboxane B2 (TXB2) released when stimulating eosinophil of guinea pig with LTB4.
Based on the method described in Japanese Journal of Pharmacology, vol. 70, p. 337-345 (1996) etc., eosinophils of guinea pig were prepared. A cell suspension (300 μl, 1.25×10^6 cells/ml) was placed in a 5 ml polypropylene test tube and, after incubation at 37° C. for 5 min., 10^−3 M test compound (37.5 μl) dissolved in 0.1% DMSO aqueous solution was added and the cells were continuously cultured for 5 min. Then, 10^−7 M LTB4 (37.5 μl) was added to induce the reaction and the cells were incubated at 37° C. for 15 min. The reaction was quenched in ice water, and the culture was centrifuged at 4° C., 3000 rpm for 10 min. The obtained supernatant was prepared as a sample for TXB2 measurement, and preserved at −80° C. before use for the measurement. The quantitation of TXB2 was performed using a TXB2 enzyme immunoassay kit (manufactured by Cayman Chemical Company). The release ratio (%) of TXB2 from the eosinophils was determined by the following formula: release ratio (%) of TXB2=[(average value of test compound administration group−average value of negative control group)/(average value of positive control group−average value of negative control group)]×100
As used herein, the positive control group means a group to which stimulation with LTB4 was applied but the same volume of a medium was given instead of the test compound, and the negative control group means a group to which stimulation with LTB4 was not applied, the same volume of a medium was given instead of LTB4, and the same volume of a medium was given instead of the test compound. When the release ratio of TXB2 is smaller than 0, it means that the measured TXB2 concentration was lower than that of the negative control group. When the TXB2 concentration in the sample was the measurement limit or less, N.D. is indicated.

human BLT1 = biological target: T2, human BLT1 (Homo sapiens, UniProt Q15722); test: LTB4-induced increase in intracellular calcium ion concentration in CHO cells expressing human BLT1 (Fluo-3, Flexstation); assay type: cell-based; conditions: CHO cells with human BLT1; LTB4 100 nM final; compound 10 μM final
T2 construct: expressed in transfected cells; host or cells: CHO cells
T2 sequence (Q15722 whole entry): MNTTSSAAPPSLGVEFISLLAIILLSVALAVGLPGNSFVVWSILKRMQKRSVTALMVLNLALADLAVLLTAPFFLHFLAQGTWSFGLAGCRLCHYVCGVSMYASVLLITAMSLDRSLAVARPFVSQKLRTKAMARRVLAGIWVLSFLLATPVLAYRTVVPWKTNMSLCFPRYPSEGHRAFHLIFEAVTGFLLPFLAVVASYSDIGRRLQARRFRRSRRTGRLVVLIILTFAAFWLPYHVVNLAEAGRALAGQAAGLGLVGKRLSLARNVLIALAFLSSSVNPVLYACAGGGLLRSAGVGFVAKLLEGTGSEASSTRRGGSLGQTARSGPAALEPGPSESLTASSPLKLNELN
Method: as §1

COc1ccc(NC(=O)/C=C/c2oc3ccc(OC)cc3c2-c2ccc(Cl)cc2)cc1 [Example 141, (E)-3-[3-(4-chlorophenyl)-5-methoxybenzofuran-2-yl]-N-(4-methoxyphenyl)acrylamide]
melting point: 194 to 195.1 °C | Suppressive effect on increase in intracellular calcium ion concentration compared with ZK158252 (in words) (human BLT2): almost of the same level as or not less than that by ZK158252

COc1cccc2cc(/C(Cl)=C/C=C/C(=O)N(C(C)C)C(C)C)oc12 [Example 142, (2E,4Z)-5-chloro-5-(7-methoxybenzofuran-2-yl)penta-2,4-dienoic acid diisopropylamide]
melting point: 140.1 to 142 °C | Suppressive effect on increase in intracellular calcium ion concentration compared with ZK158252 (in words) (human BLT2): almost of the same level as or not less than that by ZK158252

COc1cccc(NC(=O)/C=C(\C)c2cc3cccc(OCCCC(=O)O)c3o2)c1 [Example 29, (E)-4-{2-[2-(3-methoxyphenylcarbamoyl)-1-methylvinyl]benzofuran-7-yloxy}butyric acid]
melting point: 155.5 to 157.5 °C | Amount of TXB2 release (%) (LTB4 receptor): −0.19% | Suppressive effect on increase in intracellular calcium ion concentration compared with ZK158252 (in words) (human BLT2): almost of the same level as or not less than that by ZK158252

COc1ccc2oc(-c3csc(NC(=O)/C(C#N)=C(/C)O)n3)c(-c3ccc(Cl)cc3)c2c1 [Example 222, (Z)-2-cyano-3-hydroxy-2-butenoic acid {4-[3-(4-chlorophenyl)-5-methoxybenzofuran-2-yl]thiazol-2-yl}amide]
melting point: 229.5 to 231 °C | Suppressive effect on increase in intracellular calcium ion concentration compared with ZK158252 (in words) (human BLT2): almost of the same level as or not less than that by ZK158252

CCOC(=O)CCCOc1cccc2cc(/C(C)=C\C(=O)Nc3ccc(OC)c(OC)c3)oc12 [Example 46, Ethyl (Z)-4-{2-[2-(3,4-dimethoxyphenylcarbamoyl)-1-methylvinyl]benzofuran-7-yloxy}butyrate]
melting point: 101.5 to 105 °C | Amount of TXB2 release (%) (LTB4 receptor): 45.62% | Suppressive effect on increase in intracellular calcium ion concentration compared with ZK158252 (in words) (human BLT2): almost of the same level as or not less than that by ZK158252

COc1cccc2cc(/C(Cl)=C/C=C/C(=O)N3CCCCC3)oc12 [Example 144, (2E,4Z)-5-chloro-5-(7-methoxybenzofuran-2-yl)-1-piperidin-1-ylpenta-2,4-dien-1-one]
melting point: 142.2 to 144.4 °C | Suppressive effect on increase in intracellular calcium ion concentration compared with ZK158252 (in words) (human BLT2): almost of the same level as or not less than that by ZK158252

COc1ccc2oc(-c3csc(N=CN(C)C)n3)c(-c3ccc(Cl)cc3)c2c1 [Example 219, N′-{4-[3-(4-chlorophenyl)-5-methoxybenzofuran-2-yl]thiazol-2-yl}-N,N-dimethylformamidine]
melting point: 142.7 to 144.3 °C | Suppressive effect on increase in intracellular calcium ion concentration compared with ZK158252 (in words) (human BLT2): almost of the same level as or not less than that by ZK158252

CCOC(=O)CCCOc1cccc2cc(/C(C)=C/C(=O)NCCc3ccc(OC)c(OC)c3)oc12 [Example 49, Ethyl (E)-4-(2-{2-[2-(3,4-dimethoxyphenyl)ethylcarbamoyl]-1-methylvinyl}benzofuran-7-yloxy)butyrate]
melting point: 114 to 115.5 °C | Amount of TXB2 release (%) (LTB4 receptor): 2.37% | Suppressive effect on increase in intracellular calcium ion concentration compared with ZK158252 (in words) (human BLT2): almost of the same level as or not less than that by ZK158252

CCOC(=O)CCCOc1cccc2cc(/C(C)=C/C(=O)NCC(=O)OCC)oc12 [Example 40, Ethyl (E)-4-{2-[2-(ethoxycarbonylmethylcarbamoyl)-1-methylvinyl]benzofuran-7-yloxy}butyrate]
melting point: 96.2 to 98.5 °C | Amount of TXB2 release (%) (LTB4 receptor): −0.18%

O=C(/C=C/c1ccccc1)Nc1c(C(=O)O)oc2ccccc12 [Example 121, (E)-3-(3-phenylacryloylamino)benzofurane-2-carboxylic acid]
melting point: 197.8 to 200.2 °C | Amount of TXB2 release (%) (LTB4 receptor): 5.77%

CCOC(=O)CCCOc1cccc2cc(/C(C)=C/C(=O)N3CCOCC3)oc12 [Example 30, Ethyl (E)-4-[2-(1-methyl-3-morpholino-3-oxo-1-propenyl)benzofuran-7-yloxy]butyrate]
melting point: 90 to 94.8 °C | Amount of TXB2 release (%) (LTB4 receptor): 0.086% | Suppressive effect on increase in intracellular calcium ion concentration compared with ZK158252 (in words) (human BLT2): almost of the same level as or not less than that by ZK158252

COc1ccc(CCNC(=O)/C=C(\C)c2ccc3oc(C(C)=O)c(N)c3c2)cc1OC [Example 17, (E)-3-(2-acetyl-3-aminobenzofuran-5-yl)-N-[2-(3,4-dimethoxyphenyl)ethyl]-2-butenamide]
melting point: 168 to 173 °C | Amount of TXB2 release (%) (LTB4 receptor): 27.92%

CCOC(=O)CCCOc1cccc2cc(/C(C)=C/C(=O)N(CC)CC)oc12 [Example 224, Ethyl (E)-4-[2-(2-diethylcarbamoyl-1-methylvinyl)benzofuran-7-yloxy]butyrate]
Suppressive effect on increase in intracellular calcium ion concentration compared with ZK158252 (in words) (human BLT2): almost of the same level as or not less than that by ZK158252

C/C(O)=C(\C#N)C(=O)Nc1c(C(=O)c2ccc(Cl)cc2)oc2ccc(Br)cc12 [Example 98, (Z)-N-[5-bromo-2-(4-chlorobenzoyl)benzofuran-3-yl]-2-cyano-3-hydroxy-2-butenamide]
melting point: 263.3 to 265.3 °C | Suppressive effect on increase in intracellular calcium ion concentration compared with ZK158252 (in words) (human BLT2): almost of the same level as or not less than that by ZK158252

CC(=O)c1cc2c(/C(C)=C/C(=O)N3CCOCC3)ccc(OC(C)c3ccccc3)c2o1 (stereo not drawn) [Example 9, (E)-3-[2-acetyl-7-(1-phenylethoxy)benzofuran-4-yl]-1-morpholino-2-buten-1-one]
melting point: 173.9 to 175.4 °C | Amount of TXB2 release (%) (LTB4 receptor): 0.68%

COc1cccc(NC(=O)/C=C(\C)c2cc3cccc(OC(c4ccccc4)c4ccccc4)c3o2)c1 [Example 38, (E)-3-(7-benzhydryloxybenzofuran-2-yl)-N-(3-methoxyphenyl)-2-butenamide]
melting point: 167.2 to 168.2 °C | Amount of TXB2 release (%) (LTB4 receptor): 91.73%

CCN(CC)C(=O)/C=C(\C)c1cc2c(Br)ccc(OCCCC(=O)O)c2o1 [Example 36, (E)-4-[4-bromo-2-(2-diethylcarbamoyl-1-methylvinyl)benzofuran-7-yloxy]butyric acid]
melting point: 125.5 to 127 °C | Amount of TXB2 release (%) (LTB4 receptor): −0.301%

C/C=C/C(=O)NC(C)c1cc2cccc(OC)c2o1 (stereo not drawn) [Example 130, (E)-[1-(7-methoxybenzofuran-2-yl)ethyl]-2-butenamide]
melting point: 128.7 to 130.2 °C | Amount of TXB2 release (%) (LTB4 receptor): 35.44%

O=C(O)CCC/C=C1\CCCCC1/C=C/C=C/C(O)C1(CC#Cc2ccccc2)CCC1 (stereo not drawn) [ZK158252, reference compound]
Suppression of increase in intracellular calcium ion concentration due to LTB4 stimulation (in words) (human BLT1): significantly suppressed | Suppression of increase in intracellular calcium ion concentration due to LTB4 stimulation (in words) (human BLT2; CHO cells with human BLT2, positive control antagonist): significantly suppressed

C/C=C/C(=O)Nc1c(C(=O)OCC)oc2ccccc12 [Example 118, Ethyl (E)-3-methyl-acryloylaminobenzofurane-2-carboxylate]
melting point: 143.2 to 145.6 °C | Amount of TXB2 release (%) (LTB4 receptor): 73.84%

CCN(CC)C(=O)/C=C(\C)c1cc2cccc(OC(C)C)c2o1 [Example 33, (E)-3-(7-isopropoxybenzofuran-2-yl)-N,N-diethyl-2-butenamide]
Amount of TXB2 release (%) (LTB4 receptor): −0.199% | Suppressive effect on increase in intracellular calcium ion concentration compared with ZK158252 (in words) (human BLT2): almost of the same level as or not less than that by ZK158252
